For test [1], the target named is HCV NS3/4A protease complex, BMS strain (UniProt P27958, C1454S/C1711G, species not given/STRAIN_BMS). Briefly: Recombinant HCV NS3/4A protease complex FRET peptide assay (BMS strain). In kind it is biochemical, HCV genotype 1a. An outline of the steps: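 Recombinant BMS-strain NS3/4A (His-tagged NS4A with three-lysine tail, E. coli) at 2-3 nM preincubated 1 min with compound, then 2 μM ester-linked NS4A/NS4B-based FRET peptide added. Fluorescence followed in real time ~15 min at 25° C. Percent inhibition from slope of linear fluorescence change versus no-compound control.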

For test [2], the system named is HCV replicon in Huh7 cells. Briefly: HCV replicon cell-based assay. Further details: species or system HCV strain 1B. The conditions noted are these: Hepatitis C virus. (A replicon is a self-replicating genome or part of one, used to study replication in cells.)
The mark [3] stands for this setting: NS3/4A BMS strain; read-out: IC50 range.
[4] abbreviates: Huh-7, HCV replicon, Huh7 cells, read-out: EC50 range.
Where [5] appears, read: read-out: IC50 range; NS3/4A BMS strain.

The structures appear in SMILES notation. Like-named read-outs stand apart in the source and are kept apart here.

For `C=CC1C[C@]1(NC(=O)[C@@H]1C[C@@H](Oc2ccc3c(Cl)nccc3c2SCCC)CN1C(=O)[C@@H](NC(=O)OC(C)(C)C)C(C)(C)C)C(=O)NS(=O)(=O)C1CC1` (stereo partly drawn) [Compound 204, BOCNH-P3(L-t-BuGly)-P2[(4R)-(1-Chloro-5propylthio -isoquinolin-6-oxo)-S-proline]-P1(1R,2S VinylAcca)-CONHSO2Cyclopropane], in test [1] (setting [3]), the IC50 was less than 100 nM. In test [2] (setting [4]), the EC50 fell in the range of 100 to 1000 nM.
With `C=CC1CC1(NC(=O)[C@@H]1C[C@@H](Oc2cc(C(F)(F)F)nc3nc(C)ccc23)CN1C(=O)[C@@H](NC(=O)OC(C)(C)C)C(C)(C)C)C(=O)NS(=O)(=O)C1CC1` (stereo partly drawn) [Compound 8], the IC50 in test [1] (setting [3]) is 100 to 1000 nM. Besides, the EC50 in test [2] (setting [4]) lay within 1000 to 10000 nM.
Turning to `C=C[C@@H]1C[C@]1(NC(=O)[C@@H]1C[C@@H](Oc2ccnc(-c3ccc(OC)cc3)c2)CN1C(=O)[C@@H](NC(=O)OC1CCCC1)C(C)(C)C)C(=O)NS(=O)(=O)C1CC1` [Compound 428], the IC50 in test [1] (setting [3]) was less than 100 nM. Further, in test [2] (setting [4]), the concentration giving a half-maximal response (EC50) is 100 to 1000 nM.
In the same order, the values of `C=C[C@@H]1C[C@]1(NC(=O)[C@@H]1CC(Oc2nccc3cc(OC)ccc23)CN1C(=O)[C@@H](NC(=O)N(CC)CC)C(C)(C)C)C(=O)NS(=O)(=O)C1CC1` (stereo partly drawn) [Compound 79] are less than 100 nM and 100 to 1000 nM.
As to `C=C[C@@H]1C[C@]1(NC(=O)[C@@H]1C[C@@H](Oc2nccc3cc(Cl)ccc23)CN1C(=O)[C@@H](NC(=O)OC(C)(C)C)C(C)(C)C)C(=O)NS(=O)(=O)C1CC1` [Compound 20], the IC50 in test [1] (setting [3]) is less than 100 nM. Besides, the EC50 in test [2] (setting [4]) was 100 to 1000 nM.
Turning to `C=C[C@@H]1C[C@]1(NC(=O)[C@@H]1C[C@@H](Oc2nccc3cc(OC)ccc23)CN1C(=O)[C@H](CC(=O)O)NC(=O)OC(C)(C)C)C(=O)NS(=O)(=O)C1CC1` [Compound 140], the IC50 in test [1] (setting [3]) was less than 100 nM. For the same compound, the EC50 in test [2] (setting [4]) lay within 1000 to 10000 nM.
In the same order, the values of `C=C[C@@H]1C[C@]1(NC(=O)[C@@H]1C[C@@H](Oc2nccc3c(OC)c(Cl)ccc23)CN1C(=O)[C@@H](NC(=O)OC(C)(C)C)C(C)(C)C)C(=O)NS(=O)(=O)C1CC1` [Compound 276] are less than 100 nM and less than 100 nM.
Consider `C=CC1C[C@]1(NC(=O)[C@@H]1C[C@@H](Oc2nncc3ccccc23)CN1C(=O)[C@@H](NC(=O)OC(C)(C)C)C(C)(C)C)C(=O)NS(=O)(=O)C1CC1` (stereo partly drawn) [Compound 194, BOCNH-P3(L-tert-BuGly)-P2[(4R)-(phthalazine-1-oxo)-S-proline]-P1(1R,2S Vinyl Acca)-CONHSO2-Cyclopropane], for which the IC50 in test [1] (setting [3]) is less than 100 nM. Also, the EC50 in test [2] (setting [4]) is 100 to 1000 nM.
For the compound `C=C[C@@H]1C[C@]1(NC(=O)[C@@H]1C[C@@H](Oc2cc(-c3ccccc3OC)nc3c(C)noc23)CN1C(=O)[C@@H](NC(=O)OC(C)(C)C)C(C)(C)C)C(=O)NS(=O)(=O)C1CC1` [Compound 6], the IC50 in test [1] (setting [3]) was in the range of 100 to 1000 nM. Further, in test [2] (setting [4]), the EC50 fell in the range of 100 to 1000 nM.
With `C=CC1C[C@]1(NC(=O)[C@@H]1C[C@@H](Oc2nc(-c3ccccn3)cc3cc(OC)ccc23)CN1C(=O)[C@@H](NC(=O)OC(C)(C)C)C(C)(C)C)C(=O)NS(=O)(=O)C1CC1` (stereo partly drawn) [Compound 320], the IC50 in test [1] (setting [3]) is less than 100 nM. For the same compound, the EC50 in test [2] (setting [4]) is less than 100 nM.
For the compound `C=C[C@@H]1C[C@]1(NC(=O)[C@@H]1C[C@@H](Oc2nccc3ccccc23)CN1C(=O)[C@@H](NC(=O)Oc1ccc(F)cc1)C(C)(C)C)C(=O)NS(=O)(=O)C1CC1` [Compound 122], in test [1] (setting [3]), the IC50 is less than 100 nM. The EC50 in test [2] (setting [4]) lay within 100 to 1000 nM.
For the compound `CC[C@@H]1C[C@]1(NC(=O)[C@@H]1C[C@@H](Oc2nccc3c4c(ccc23)OC(F)(F)O4)CN1C(=O)[C@@H](NC(=O)OC(C)(C)C)C(C)(C)C)C(=O)NS(=O)(=O)C1CC1` [Compound 289], the IC50 in test [1] (setting [3]) is less than 100 nM. Moreover, the EC50 in test [2] (setting [4]) fell in the range of 100 to 1000 nM.
Regarding `C=C[C@@H]1C[C@]1(NC(=O)[C@@H]1C[C@@H](Oc2nccc3cc(OC)ccc23)CN1C(=O)[C@@H](NC(=O)NCC(=O)OC)C(C)(C)C)C(=O)NS(=O)(=O)C1CC1` [Compound 144], in test [1] (setting [3]), the IC50 is less than 100 nM. Moreover, in test [2] (setting [4]), the EC50 was in the range of 100 to 1000 nM.
With `C=C[C@@H]1CC1(NC(=O)[C@@H]1CC(Oc2nccc3cc(OC)ccc23)CN1C(=O)[C@@H](NC(=O)OCc1ccccc1)C(C)(C)C)C(=O)NS(=O)(=O)C1CC1` (stereo partly drawn) [Compound 64], the IC50 in test [1] (setting [5]) is less than 100 nM. In addition, the EC50 in test [2] (setting [4]) is less than 100 nM.
With `C=C[C@@H]1C[C@]1(NC(=O)[C@@H]1C[C@@H](Oc2nc(-c3ccccc3)cc3cc(OC)ccc23)CN1C(=O)[C@@H](NC(=O)OC(C)(C)C)C(C)(C)C)C(=O)NS(=O)(=O)C1CC1` [Compound 36], in test [1] (setting [5]), the half-inhibitory concentration (IC50) is less than 100 nM. Moreover, in test [2] (Huh-7, read-out: EC50 range), the EC50 is less than 100 nM.
For `C=C[C@@H]1C[C@]1(NC(=O)[C@@H]1C[C@@H](Oc2nccc3cc(OC)ccc23)CN1C(=O)[C@@H](NC(=O)OC(C)(C)C)[C@@H](C)OC(C)(C)C)C(=O)NS(=O)(=O)C1CC1` [Compound 93], the IC50 in test [1] (setting [3]) fell in the range of 100 to 1000 nM. In test [2] (setting [4]), the EC50 was in the range of 100 to 1000 nM.
Take `CC[C@@H]1C[C@]1(NC(=O)[C@@H]1C[C@@H](Oc2nccc3c(F)c(OC)ccc23)CN1C(=O)[C@@H](NC(=O)OC(C)(C)C)C(C)(C)C)C(=O)NS(=O)(=O)C1CC1` [Compound 299]: in test [1] (setting [3]), the IC50 was less than 100 nM. Moreover, the EC50 in test [2] (setting [4]) was 100 to 1000 nM.
In the same order, the values of `C=C[C@@H]1C[C@]1(NC(=O)[C@@H]1C[C@@H](Oc2nccc3cc(OC)ccc23)CN1C(=O)[C@@H](NC(=O)N[C@@H](Cc1c[nH]cn1)C(=O)OC)C(C)(C)C)C(=O)NS(=O)(=O)C1CC1` [Compound 147] are less than 100 nM and 1000 to 10000 nM.
Turning to `C=C[C@@H]1C[C@]1(NC(=O)[C@@H]1C[C@@H](Oc2nccc3cc(OC)ccc23)CN1C(=O)[C@@H](NC(=O)N[C@@H](C)C(=O)OC)C(C)(C)C)C(=O)NS(=O)(=O)C1CC1` [Compound 145], the IC50 in test [1] (setting [3]) was less than 100 nM. Besides, in test [2] (setting [4]), the EC50 fell in the range of 100 to 1000 nM.
In the case of `C=C[C@@H]1C[C@]1(NC(=O)[C@@H]1C[C@@H](Oc2cc(-c3ccccc3)nc3nc(C)ccc23)CN1C(=O)[C@@H](NC(=O)OC(C)(C)C)C(C)(C)C)C(=O)NS(=O)(=O)C1CC1` [Compound 2], in test [1] (setting [3]), the IC50 was less than 100 nM. Further, in test [2] (setting [4]), the EC50 was 100 to 1000 nM.
Consider `C=CC1C[C@]1(NC(=O)[C@@H]1C[C@@H](Oc2nc(-c3nccs3)c(OC)c3ccccc23)CN1C(=O)[C@@H](NC(=O)OC(C)(C)C)C(C)(C)C)C(=O)NS(=O)(=O)C1CC1` (stereo partly drawn) [Compound 232, BOCNH-P3(L-t-BuGly)-P2[(4R)-(4-methoxy-3-thiazol-2-yl -isoquinolin-1-oxo)-S-proline]-P1(1R,2S VinylAcca)-CONHSO2Cyclopropane], for which the IC50 in test [1] (setting [3]) was less than 100 nM. Further, the EC50 in test [2] (setting [4]) is less than 100 nM.
Consider `C=C[C@@H]1C[C@]1(NC(=O)[C@@H]1C[C@@H](Oc2ccnc3cc(Cl)ccc23)CN1C(=O)[C@@H](NC(=O)OC(C)(C)C)C(C)(C)C)C(=O)NS(=O)(=O)C1CC1` [Compound 371], for which the IC50 in test [1] (setting [3]) was less than 100 nM. The EC50 in test [2] (setting [4]) was less than 100 nM.
As to `C=C[C@@H]1C[C@]1(NC(=O)[C@@H]1CC(Oc2nccc3cc(OC)ccc23)CN1C(=O)[C@@H](NC(=O)N(C)OC)C(C)(C)C)C(=O)NS(=O)(=O)C1CC1` (stereo partly drawn) [Compound 78], the IC50 in test [1] (setting [3]) is less than 100 nM. Further, the EC50 in test [2] (setting [4]) lay in the range of 1000 to 10000 nM.
In the same order, the values of `C=C[C@@H]1C[C@]1(NC(=O)[C@@H]1C[C@@H](Oc2nccc3ccccc23)CN1C(=O)[C@@H](NC(=O)Oc1ccc(OC)cc1)C(C)(C)C)C(=O)NS(=O)(=O)C1CC1` [Compound 123] are less than 100 nM and 100 to 1000 nM.

In general, IC50 refers to the concentration that inhibits the measured activity by half. By EC50 is commonly meant the midpoint of the concentration-response curve.

Source of the values: patent US7915291B2, “Hepatitis C virus inhibitors” (Bristol-Myers Squibb Company, priority 2002, dated 2011).
